Values joined by “and” are separate entries in the source; they are usually repeats but may differ in a detail not shown here. Equal values may be shown once.
How the values were obtained:
293T cells [1] = assay: Fluorescence detection of Fluc-mRNA (cell transfection efficiency of LNP formulations); assay type: cell-based
In short: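 293T cells at 10,000 per well, adhered overnight, then given LNPs carrying 0.3 μg Fluc-mRNA (cationic:neutral:structured:polymer-conjugated lipid 49:10:39.5:1.5 molar). After 24 h, luciferase signal read with luciferase kit reagents on an IVIS imaging system as transfection efficiency.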

female BALB/C mice = assay: Mouse in vivo imaging of Fluc-mRNA LNP formulations; design: average radiation intensity (mRNA expression): unit not given here; settings: for average radiation intensity (mRNA expression): 10 μg Fluc-mRNA LNP intramuscularly
In short: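 Female BALB/C mice (4–6 weeks, 17–19 g) received LNP carrying 10 μg Fluc-mRNA intramuscularly. Imaging substrate given intraperitoneally at 6 h, 24 h, 48 h and 7 d; after 5 min free movement, average radiance read by IVIS Spectrum imaging.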

[2] = Particle size and polydispersity index (PDI) of nanolipid particles, dynamic light scattering; assay type: physicochemical; settings: LNP formulation prepared from the named cationic lipid, 25° C
Method: The particle size and polydispersity index (PDI) were determined by dynamic light scattering method using a Malvern laser particle size analyzer. 10 μL of liposome solution was diluted to 1 mL with RNase-free deionized water and added to a sample pool. Each sample was measured three times. The measurement conditions were: 90° scattering angle, 25° C.

293T cells [3] = assay: Cell survival rate assay (CCK-8); assay type: cell-based
In short: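 293T cells seeded at 10,000 per well and grown overnight, then exposed for 24 h to LNPs (cationic/neutral/structured/PEG lipids 49:10:39.5:1.5) carrying 1.5 μg Fluc-mRNA, or Lipofectamine 3000. Viability read by CCK-8, 1 h incubation, absorbance at 450 nm.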

Compound: CCCCCCCCC(CCCCCCCC)COC(=O)CCCCCN(CCCCCC(=O)OCC(CCCCCCCC)CCCCCCCC)CCN(C)CCO [YK-209, bis(2-octyldecyl)-6,6′-((2-(2-hydroxyethyl(methyl)amino)ethyl)azadialkyl)dihexanoate]
- RLU / cell transfection efficiency, times that of ALC-0315 (293T cells [1]; Fluc-mRNA LNP): 12.51 times
- RLU / cell transfection efficiency, times that of HHMA (293T cells [1]; Fluc-mRNA LNP): 12.79 times
- RLU / cell transfection efficiency, times that of Lipofectamine 3000 (293T cells [1]; Fluc-mRNA LNP): 22.36 times
- RLU / cell transfection efficiency, times that of YK-009 (293T cells [1]; Fluc-mRNA LNP): 5.24 times
- RLU / cell transfection efficiency, times that of compound 21 (293T cells [1]; Fluc-mRNA LNP): 18.90 times
- RLU / cell transfection efficiency, times that of compound 23 (293T cells [1]; Fluc-mRNA LNP): 20.17 times
- cell transfection efficiency, times that of YK-223 (293T cells [1]; Fluc-mRNA LNP): 280.74 times
- cell transfection efficiency, times that of YK-224 (293T cells [1]; Fluc-mRNA LNP): 239.25 times
- cell transfection efficiency, times that of YK-226 (293T cells [1]; Fluc-mRNA LNP): 365.22 times
- fluorescence absorption value / cell transfection efficiency, times that of YK-203 (293T cells [1]; Fluc-mRNA LNP): 5.44 times
- fluorescence absorption value / cell transfection efficiency, times that of YK-204 (293T cells [1]; Fluc-mRNA LNP): 57 times and 57.85 times
- fluorescence absorption value / cell transfection efficiency, times that of YK-205 (293T cells [1]; Fluc-mRNA LNP): 20.46 times
- fluorescence absorption value / cell transfection efficiency, times that of YK-208 (293T cells [1]; Fluc-mRNA LNP): 5.46 times
- fluorescence absorption value / cell transfection efficiency, times that of YK-210 (293T cells [1]; Fluc-mRNA LNP): 4.55 times
- fluorescence absorption value / cell transfection efficiency, times that of YK-211 (293T cells [1]; Fluc-mRNA LNP): 15.37 times
- fluorescence absorption value / cell transfection efficiency, times that of YK-212 (293T cells [1]; Fluc-mRNA LNP): 5.39 times
- fluorescence absorption value / cell transfection efficiency, times that of YK-213 (293T cells [1]; Fluc-mRNA LNP): 15.43 times
- fluorescence absorption value / cell transfection efficiency, times that of YK-214 (293T cells [1]; Fluc-mRNA LNP): 4.60 times
- fluorescence absorption value / cell transfection efficiency, times that of YK-215 (293T cells [1]; Fluc-mRNA LNP): 21.46 times
- fluorescence absorption value / cell transfection efficiency, times that of YK-216 (293T cells [1]; Fluc-mRNA LNP): 9.24 times
- fluorescence absorption value / cell transfection efficiency, times that of YK-217 (293T cells [1]; Fluc-mRNA LNP): 293.09 times
- fluorescence absorption value / cell transfection efficiency, times that of YK-218 (293T cells [1]; Fluc-mRNA LNP): 34.69 times
- fluorescence absorption value / cell transfection efficiency, times that of YK-219 (293T cells [1]; Fluc-mRNA LNP): 13.98 times
- fluorescence absorption value / cell transfection efficiency, times that of YK-220 (293T cells [1]; Fluc-mRNA LNP): 97.32 times
- fluorescence absorption value, times that of YK-222 (293T cells [1]; Fluc-mRNA LNP): 34.73 times
- Multiples of values that equivalent to YK-209 (293T cells [1]; RLU of YK-209 / RLU of the named lipid): 1.00
- average radiation intensity, times that of ALC-0315 (female BALB/C mice; 6 h): 3.00 times
- average radiation intensity, times that of HHMA (female BALB/C mice; 6 h): 3.95 times
- average radiation intensity, times that of SM-102 (female BALB/C mice; 6 h): 3.72 times
- average radiation intensity, times that of compound 21 (female BALB/C mice; 6 h): 4.20 times
- average radiation intensity, times that of compound 23 (female BALB/C mice; 6 h): 4.25 times
- mRNA expression level, times that of YK-204 (female BALB/C mice; 6 h): 71.62 times
- mRNA expression level, times that of YK-223 (female BALB/C mice; 6 h): 243.77 times
- average radiation intensity (mRNA expression) (female BALB/C mice; 6 h): 2524250
- expression level, times that of YK-215 (female BALB/C mice; 6 hours): 49.92 times
- expression level, times that of YK-217 (female BALB/C mice; 6 hours): 102.67 times
- average radiation intensity, times that of ALC-0315 (female BALB/C mice; 24 h): 10.25 times
- average radiation intensity, times that of HHMA (female BALB/C mice; 24 h): 17.05 times
- average radiation intensity, times that of SM-102 (female BALB/C mice; 24 h): 16.14 times
- average radiation intensity, times that of compound 21 (female BALB/C mice; 24 h): 17.31 times
- average radiation intensity, times that of compound 23 (female BALB/C mice; 24 h): 16.86 times
- mRNA expression level, times that of YK-204 (female BALB/C mice; 24 h): 357.40 times
- mRNA expression level, times that of YK-223 (female BALB/C mice; 24 h): 1046.60 times
- average radiation intensity (mRNA expression) (female BALB/C mice; 24 h): 1869220
- expression level, times that of YK-215 (female BALB/C mice; 24 hours): 274.28 times
- expression level, times that of YK-217 (female BALB/C mice; 24 hours): 705.37 times
- average radiation intensity, times that of ALC-0315 (female BALB/C mice; 48 h): 16.50 times
- average radiation intensity, times that of HHMA (female BALB/C mice; 48 h): 21.36 times
- average radiation intensity, times that of SM-102 (female BALB/C mice; 48 h): 20.59 times
- average radiation intensity, times that of compound 21 (female BALB/C mice; 48 h): 20.95 times
- average radiation intensity, times that of compound 23 (female BALB/C mice; 48 h): 19.61 times
- mRNA expression level, times that of YK-204 (female BALB/C mice; 48 h): 257.82 times
- mRNA expression level, times that of YK-223 (female BALB/C mice; 48 h): 927.85 times
- average radiation intensity (mRNA expression) (female BALB/C mice; 48 h): 629080
- expression level, times that of YK-215 (female BALB/C mice; 48 hours): 172.82 times
- expression level, times that of YK-217 (female BALB/C mice; 48 hours): 614.34 times
- average radiation intensity, times that of ALC-0315 (female BALB/C mice; 7 d): 4.00 times
- average radiation intensity, times that of HHMA (female BALB/C mice; 7 d): 4.96 times
- average radiation intensity, times that of SM-102 (female BALB/C mice; 7 d): 4.47 times
- average radiation intensity, times that of compound 21 (female BALB/C mice; 7 d): 4.32 times
- average radiation intensity, times that of compound 23 (female BALB/C mice; 7 d): 4.52 times
- expression level, times that of YK-215 (female BALB/C mice; 7 d): 25.84 times
- expression level, times that of YK-217 (female BALB/C mice; 7 d): 50.40 times
- mRNA expression level, times that of YK-204 (female BALB/C mice; 7 d): 34.96 times
- mRNA expression level, times that of YK-223 (female BALB/C mice; 7 d): 59.91 times
- average radiation intensity (mRNA expression) (female BALB/C mice; 7 d): 26361
- PDI [2]: 26.6%
- Particle size [2]: 226 nm
- Cell survival rate (293T cells [3]; LNP containing 1.5 μg Fluc-mRNA, 24 hours, CCK-8): 76.69%
- cell survival rate higher (cytotoxicity reduced) compared with YK-221 (293T cells [3]; difference of rates): 55% and 55.74%
- cell survival rate higher (toxicity lower) than that of YK-204 (293T cells [3]; difference of rates): 34.12%
- cell survival rate higher (toxicity lower) than that of YK-225 (293T cells [3]; difference of rates): 30% and 33.28%
- cell survival rate higher than that of ALC-0315 (293T cells [3]; difference of rates): 26.73%
- cell survival rate higher than that of HHMA (293T cells [3]; difference of rates): 11.13%
- cell survival rate higher than that of Lipofectamine 3000 (293T cells [3]; difference of rates): 53.64%
- cell survival rate higher than that of SM-102 (293T cells [3]; difference of rates): 8.14%
- cell survival rate higher than that of YK-203 (293T cells [3]; difference of rates): 41.13%
- cell survival rate higher than that of YK-205 (293T cells [3]; difference of rates): 17.77%
- cell survival rate higher than that of YK-208 (293T cells [3]; difference of rates): 30.01%
- cell survival rate higher than that of YK-210 (293T cells [3]; difference of rates): 38.31%
- cell survival rate higher than that of YK-211 (293T cells [3]; difference of rates): 24.39%
- cell survival rate higher than that of YK-212 (293T cells [3]; difference of rates): 41.43%
- cell survival rate higher than that of YK-213 (293T cells [3]; difference of rates): 35.25%
- cell survival rate higher than that of YK-214 (293T cells [3]; difference of rates): 51.11% and 50%
- cell survival rate higher than that of YK-215 (293T cells [3]; difference of rates): 32.10%
- cell survival rate higher than that of YK-216 (293T cells [3]; difference of rates): 30.89%
- cell survival rate higher than that of YK-217 (293T cells [3]; difference of rates): 34.42%
- cell survival rate higher than that of YK-219 (293T cells [3]; difference of rates): 18.08%
- cell survival rate higher than that of YK-220 (293T cells [3]; difference of rates): 17.70%
- cell survival rate higher than that of YK-222 (293T cells [3]; difference of rates): 42.94%
- cell survival rate higher than that of YK-223 (293T cells [3]; difference of rates): 40.05%
- cell survival rate higher than that of YK-224 (293T cells [3]; difference of rates): 53.22%
- cell survival rate higher than that of YK-226 (293T cells [3]; difference of rates): 48.79%
- cell survival rate higher than that of compound 21 (293T cells [3]; difference of rates): 7.67%
- cell survival rate higher than that of compound 23 (293T cells [3]; difference of rates): 6.59%

Reference: patent publication US20260007601A1, “IONIZABLE CATIONIC LIPID COMPOUND AND COMPOSITION FOR DELIVERING NUCLEIC ACID AND USE THEREOF” (BEIJING YOUCAREKECHUANG PHARMACEUTICAL TECHNOLOGY CO., LTD., priority 2023, published 2026)
